In series [1] the test system is neurogenic dystrophy of the myocardium. Description: Myocardial infarction model (electrostimulation), enzymes in rabbit myocardium. The series is classed as in vivo, rabbits. Particulars: 5 mg/kg; 48 hours after electrostimulation. From the text: The effect of Compound 2 on myocardial tissue in an experimental model of myocardial infarction was examined. In this model system neurogenic dystrophy of the myocardium was induced in rats or rabbits by electrical stimulation of the reflexogenic zone of the aortic arch by implanted electrodes for a period of three hours. […] These changes are accompanied by changes in biochemical indicators such as creatine phosphate, cAMP, and calcium ion concentrations, and changes in the activity of redox enzymes such as succinate dehydrogenase, lactate dehydrogenase, and glucose-6-phosphate dehydrogenase. At a later stage organic lesions of the myocardium such as necrotic and fibrosclerotic foci can be observed.
The effect of Compound 2 given intraperitoneally or orally on these indicators was examined in rats and rabbits following electrostimulation as described above. The effects on levels of creatine phosphate in rat myocardial are shown in Table 19, and the effects on adenosine triphosphatase (ATPase), succinate dehydrogenase and glucose-6-phosphate dehydrogenase rabbit myocardium are shown in Table 20. The effects on cAMP and Ca^++ levels in rabbit myocardial tissue are shown in FIG. 5, and effects on creatine kinase in rabbit myocardium and blood and the levels of creatine phosphate in myocardium are shown in FIG. 6.

In series [2] the test system is acute Con A-induced inflammation. Description: Acute Con A-induced inflammation (paw oedema) in mice. It counts as in vivo. How it is done:
Saline solution was similarly administered to the control animals. There were 10 mice in each group. After one hour, con A at a dose of 100 mkg/20 g of body weight was administered by sub-plantar injection into the plantar aponeurosis of the left paws of mice of both the experimental and control groups. The same amount of saline splution was injected into the contralateral paws. After one hour, the mice were killed and the experimental and control paws were weighed to assess the reaction index of the inflammation in the ankle-joint (Liubimov et al, 1999).
The anti-inflammatory effect of Compound 2 and Compound 7 was compared in male mice weighing 18-22 g, using the model described in Example 9. The ED50, i.e. the dose reducing paw ooedema by 50% one hour after injection of Concanavalin A, was calculated.

The subject of a further series is white male mice. To be noted: for LD50: intraperitoneal injection, white male mice, 14 days observation.
For series [3], the system named is lesions of the gastric mucosa. Description: Gastric lesions induced by immobilization and hypothermia. The series is classed as in vivo, rats. Details: % reduction of degree of ulceration / % reduction of ulcerated area: concentration or dose not given beside the values. To be noted: Protective effect, 30 minutes before the test. Here is the method: (§1) The models used gastric ulcers induced by
b) Immobilization and hypothermia (induced by water cooling);
(§2) The compounds were administered intraperitoneally at a dose of 20 mg/kg; in the cryogenic ulcer model compound 2 was administered either intraperitoneally (10 mg/kg) or orally (20 mg/kg twice daily, ie. a total of 40 mg/kg/day) and was compared to orally-administered gastrocepin (1 mg/kg twice daily, ie. a total of 2 mg/kg/day).

Series [4] has as its system lesions of the gastric mucosa. Description: Gastric lesions induced by electrostimulation of immobilised rats. The series is classed as in vivo. How it is done:
as §1
a) Electrostimulation of immobilised rats for 3 hours;
as §2

In series [5] the test system is cryogenic ulcer of the gastric mucosa. Description: Cryogenic gastric ulcer in rats. To be noted: healing effect over the course of 14 days; regimen not printed in the row. It counts as in vivo. Here is the method:
as §1
c) Ulcer created by local wounding with a cryogenic probe using a method similar to that described above for mouth ulcers.
as §2

The test system of series [6] is cryogenic injuries of the sigmoid colon. Nature of the series: Cryogenic damage of the colon, model of ulcerative colitis. To be noted: day 7; oral; Methyl uracil 180 mg/kg, Potassium orotate 50 mg/kg + Riboxin 50 mg/kg, Sulfasalazine 2 g/kg; one figure for the comparison agents. The series is classed as in vivo, rats. Here is the method:
A model of cryogenic damage of the colon was used in this experiment to simulate ulcerative colitis. Cryogenic injuries of the sigmoid colon of rats were induced by pressing a metal rod of […] in diameter cooled in liquid nitrogen to the serous membrane of the colon for 10 seconds under ether anaesthesia.
Tests were performed on 67 male rats weighing 180-200 g, with 8 animals in each group. Animals were kept in separate cages, with normal food and water ad libitum. The test compounds were administered orally on the second day after the operation, and then daily until healing was complete. Compound 2 or Compound 6 was administered to test animals at a dose of 20-50 mg/kg. The following agents were used for comparison:
The nature of the healing of the ulcer injury was examined morphologically on days 1, 3 and 7. […] The inflammatory process extends beyond the injured area into the adjacent areas, and beyond the peritoneum into fatty connective tissue.

The next series relates to myocardial infarction. Nature of the series: Clinical comparison of Compound 2 and Riboxin in subacute myocardial infarction (Example 25). It counts as in vivo, human. Here is the method:
A total of 94 patients were examined; of these:
Conventional therapy as for example 24 was given to 30 patients. Each patient continued to receive the treatment which s/he had been given prior to commencement of the trial. Compound 2 was administered in addition to the previous treatment.
All the patients underwent standard laboratory tests prior to commencement of Compound 2 therapy, 14 days after the beginning of the course and upon completion of the course. The tests included clinical blood analysis; general urine analysis; evaluation of creatinine, bilirubin, transaminase activity, blood sugar, cholesterol and β-lipoproteins, malonic dialdehyde, Schiff bases, zinc, iron, copper, plasma potassium and sodium, prothrombin and fibrinogen; and an ECG examination in dynamics.
All the patients received conventional therapy, i.e. nitrates, anticoagulants and/or hypotensive agents as appropriate.
Combination therapy included Compound 2 (1st group—32 patients) or Riboxin (2nd group—18 patients). The agents were administered at a dose of 200 mg three times per day.

[7] abbreviates: Table 4, 0.005M dose (Compound 2 19 mg/kg, Compound 7 16.4 mg/kg) + Con A.
Where [8] appears, read: Table 4, 0.01M dose (Compound 2 38 mg/kg, Compound 7 32 mg/kg) + Con A.
[9] abbreviates: Table 4, 0.015M dose (Compound 2 57 mg/kg, Compound 7 49 mg/kg) + Con A.
Where [10] appears, read: Table 4, 0.02M dose (Compound 2 76 mg/kg, Compound 7 65.6 mg/kg) + Con A.
Where [11] appears, read: Healing effect over the course of 3 days.
The mark [12] stands for this setting: Protective effect, 30 minutes before the test.
[13] abbreviates: 200 mg three times per day plus conventional therapy.

From US20060135587A1, “Method and compounds for promoting healing and reducing inflammation” (priority 2002, published 2006) come the findings set out here.

Procedure for white male mice: The acute toxicity of 1,3-dialkyl-4,5-bis (N-methylcarbamoyl)imidazolium salts was assessed following intraperitoneal injection into 200 white male mice weighing 18 to 20 g. Dead animals were counted daily after the administration of the test substance.

On to `CCn1cnc(C(=O)NC)c1C(=O)NC` [Ethimizol, 1-ethylimidazole-4,5-dicarboxylic acid bis-N-methylamide, reference compound], for which, in series [1], the “ATPase” value came to 0.43 ± 0.11 µM/mg/min, the “Glucose-6-phosphate dehydrogenase (optical density units)” value is 5.8 ± 0.7 optical density units and the “Succinate dehydrogenase (optical density units)” value amounted to 39.7 ± 7.4 optical density units.
For the compound “1-methyl-3-ethyl-4,5-bis(N-methylcarbamoyl)-imidazolium 2,4-dihydroxybenzoate [Compound 7]”, the “Paw oedema reduction (%)” value in series [2] (setting [7]) was determined as 60%; in series [2] (setting [8]), 13%; in series [2] (setting [9]), 45%; in series [2] (setting [10]), 70%. Moreover, the “Reaction index (%)” value in series [2] (setting [7]) is 6.73 ± 2.2%; in series [2] (setting [8]) it was 9.93 ± 2.8%; in series [2] (setting [9]), 7.2 ± 1.8%; in series [2] (setting [10]), 4.9 ± 1.7%. In addition, the “ED50, dose reducing paw oedema by 50% one hour after injection of Concanavalin A” value in series [2] (male mice) amounted to 52 mg/kg. In addition, the toxicity entry with white male mice is given as “very low toxicity”. Moreover, the LD50 – broadly, the dose at which mortality reaches 50% – with white male mice came out at 1221 mg/kg.
For the compound “1,3-dimethyl-4,5-bis(N-methylcarbamoyl)-imidazolium benzenesulfonate [Compound 1]”, the “% reduction of degree of ulceration” value was 0% in series [3], 18% in series [4] (setting [11]), 0% in series [4] (setting [12]) and 53% in series [5]. In addition, the “% reduction of ulcerated area” value in series [3] and in series [4] (setting [12]) was 0% each time. The results for the Area of lesion in series [3] and in series [4] (setting [12]) were 10.1 ± 1.4 and 15.0 ± 4.7, respectively. Moreover, the “Average number of lesions per animal” value in series [3] (20 mg/kg intraperitoneally) amounted to 10.2 ± 1.2; in series [4] (setting [11]) it was 2.8 ± 0.7; in series [4] (Protective effect, 30 minutes before the test, 20 mg/kg intraperitoneally) it was 7.0 ± 0.7; in series [5], 8.8 ± 1.9. The “Reaction index (%)” value in series [2] (Table 3, 10 mg/kg intra-peritoneally one hour before Con A, male CBA mice) is 14.6 ± 3.5%; in series [2] (Table 3, 50 mg/kg intra-peritoneally one hour before Con A, male CBA mice), 5.3 ± 2.0 %. Further, in the series on white male mice, the toxicity result is “very low toxicity”. This compound also gave a median lethal dose (LD50) with white male mice of 1833 mg/kg.
As for `Cc1cc(=O)[nH]c(=O)[nH]1` [Methyl uracil, reference compound], in series [6], the “animals demonstrating complete healing” value amounted to 18%.
Consider `OC[C@H]1O[C@@H](n2cnc3c(O)ncnc32)[C@H](O)[C@@H]1O` [Riboxin, inosine, reference compound], for which, in the series on myocardial infarction (setting [13]), the cholesterol levels turned out to be 85.5% and the level of prothrombin was 88.7%. In addition, in the series with myocardial infarction (200 mg three times per day plus conventional therapy, 54.4±1.5% in the absence of the agent), the ejection fraction turned out to be 56.8±1.3%. The superoxide dismutase levels in the series on myocardial infarction (after therapy, 18-20 before treatment, norm 23) was 21.5 conventional units. The “level of Schiff bases” value in the series with myocardial infarction (after therapy, 75 before treatment, normal 60) came to 62.6 conventional units. Further, the “cases in which cicatrisation took place one or two days earlier” value in the series on myocardial infarction (patients with repeated myocardial infarct) is on record as 12%.
Take `O=C(O)c1cc(/N=N/c2ccc(S(=O)(=O)Nc3ccccn3)cc2)ccc1O` [Sulphasalazine, Sulfasalazine, reference compound]: the “animals demonstrating complete healing” value in series [6] was 18%.
